We go through 24 compounds from ChEMBL document CHEMBL4616703, “Benzoxazepine-Derived Selective, Orally Bioavailable Inhibitor of Human Acidic Mammalian Chitinase” (ACS Med Chem Lett, 2020).

pIC50: −log10 of the molar value.

Data set [1] is described as follows: AUC (0 to infinity) in Sprague-Dawley rat at 10 mg/kg, po administered as single dose measured after 24 hrs by LC-MS/MS analysis. The data set is classed as ADME, organism-based. The settings on record: in vivo. On the set-up: dose 10 mg/kg, time infinity, route oral.
For data set [2], the target named is Chitotriosidase-1 (Homo sapiens, UniProt Q13231). The experiment in a line: Inhibition of full length recombinant C-terminal His-taged human CHIT1 expressed in CHOK1 cells assessed as reduction in chitinolytic activity using 4-methylumbelliferyl-beta-D-N,N',N''-[…] as substrate incubated for 60 mins under shaking condition by microplate fluorometry analysis. On the set-up: species or system CHO-K1.

In data set [3] the target is T1, Voltage-gated inwardly rectifying potassium channel KCNH2 (Homo sapiens, UniProt Q12809). The experiment in a line: Displacement of Tracer Red from human ERG by fluorescence polarization assay.
The nature of data set [4]: Cmax in Sprague-Dawley rat at 10 mg/kg, po administered as single dose measured after 24 hrs by LC-MS/MS analysis. On the set-up: dose 10 mg/kg, route oral. The settings on record: in vivo. It counts as ADME, organism-based.
The target in data set [5] is Acidic mammalian chitinase (Homo sapiens, UniProt Q9BZP6). The experiment in a line: Inhibition of full length recombinant C-terminal His-tagged human acidic mammalian chitinase expressed in CHOK1 cells assessed as reduction in chitinolytic activity using 4-methylumbelliferyl-beta-D-N,N-diacetylchitobioside hydrate as substrate incubated for 60 mins under shaking condition by microplate fluorometry analysis. On the set-up: species or system CHO-K1.

The nature of data set [6]: AUC (0 to infinity) in BALB/c mouse at 3 mg/kg, iv administered as single dose measured after 24 hrs by LC-MS/MS analysis. The conditions noted are these: in vivo. It counts as ADME, organism-based. On the set-up: dose 3 mg/kg, route intravenous, time infinity.
Data set [7] can be described thus: AUC (0 to infinity) in BALB/c mouse at 10 mg/kg, po administered as single dose measured after 24 hrs by LC-MS/MS analysis. The data set is classed as ADME, organism-based. On the set-up: dose 10 mg/kg, route oral, time infinity. The conditions noted are these: in vivo.
Data set [8] can be described thus: Half life in BALB/c mouse at 3 mg/kg, iv administered as single bolus dose measured after 24 hrs by LC-MS/MS analysis. It counts as ADME, organism-based. The conditions noted are these: in vivo.
A short description of data set [9]: Half life in BALB/c mouse at 10 mg/kg, po administered as single dose measured after 24 hrs by LC-MS/MS analysis. The settings on record: in vivo. It counts as ADME, organism-based.
The nature of data set [10]: Mean residence time in BALB/c mouse at 3 mg/kg, iv administered as single bolus dose measured after 24 hrs by LC-MS/MS analysis. The data set is classed as ADME, organism-based. The conditions noted are these: in vivo.
Data set [11] in a line: Tmax in BALB/c mouse at 10 mg/kg, po administered as single dose measured after 24 hrs by LC-MS/MS analysis. The conditions noted are these: in vivo. It counts as ADME, organism-based.
A short description of data set [12]: Mean residence time in BALB/c mouse at 10 mg/kg, po administered as single dose measured after 24 hrs by LC-MS/MS analysis. It counts as ADME, organism-based. The conditions noted are these: in vivo.
Data set [13] is described as follows: Cmax in BALB/c mouse at 10 mg/kg, po administered as single dose measured after 24 hrs by LC-MS/MS analysis. It counts as ADME, organism-based. On the set-up: dose 10 mg/kg, route oral. The settings on record: in vivo.
Data set [14] can be described thus: Mean residence time in Sprague-Dawley rat at 10 mg/kg, po administered as single dose measured after 24 hrs by LC-MS/MS analysis. It counts as ADME, organism-based. The conditions noted are these: in vivo.
Data set [15] is described as follows: Oral bioavailability in BALB/c mouse at 10 mg/kg administered as single dose measured after 24 hrs by LC-MS/MS analysis. The data set is classed as ADME, organism-based. The settings on record: in vivo.
Data set [16] in a line: Clearance in BALB/c mouse at 3 mg/kg, iv administered as single bolus dose measured after 24 hrs by LC-MS/MS analysis. It counts as ADME, organism-based. The settings on record: in vivo.
Data set [17] in a line: AUC(0 to infinity) in Sprague-Dawley rat at 10 mg/kg, po administered as single dose measured after 24 hrs by LC-MS/MS analysis. It counts as ADME, organism-based. The settings on record: in vivo. On the set-up: dose 10 mg/kg, route oral, time infinity.
A short description of data set [18]: Tmax in Sprague-Dawley rat at 10 mg/kg, po administered as single dose measured after 24 hrs by LC-MS/MS analysis. The data set is classed as ADME, organism-based. The conditions noted are these: in vivo.
Data set [19] in a line: Volume of distribution at steady state in BALB/c mouse at 3 mg/kg, iv administered as single bolus dose measured after 24 hrs by LC-MS/MS analysis. The data set is classed as ADME, organism-based. The settings on record: in vivo, read-out: Vdss.
A short description of data set [20]: Half life in Sprague-Dawley rat at 10 mg/kg, po administered as single dose measured after 24 hrs by LC-MS/MS analysis. The conditions noted are these: in vivo. It counts as ADME, organism-based.
A short description of data set [21]: Cmax in BALB/c mouse at 3 mg/kg, iv administered as single bolus dose measured after 24 hrs by LC-MS/MS analysis. The data set is classed as ADME, organism-based. The conditions noted are these: in vivo. On the set-up: dose 3 mg/kg, route intravenous.
Data set [22] has as its target T1, Voltage-gated inwardly rectifying potassium channel KCNH2. The experiment in a line: Inhibition of human ERG expressed in CHO-K1 cells by automated Qpatch-clamp assay. It counts as cell-based.

Chitotriosidase-1, sequence (Q13231 whole entry): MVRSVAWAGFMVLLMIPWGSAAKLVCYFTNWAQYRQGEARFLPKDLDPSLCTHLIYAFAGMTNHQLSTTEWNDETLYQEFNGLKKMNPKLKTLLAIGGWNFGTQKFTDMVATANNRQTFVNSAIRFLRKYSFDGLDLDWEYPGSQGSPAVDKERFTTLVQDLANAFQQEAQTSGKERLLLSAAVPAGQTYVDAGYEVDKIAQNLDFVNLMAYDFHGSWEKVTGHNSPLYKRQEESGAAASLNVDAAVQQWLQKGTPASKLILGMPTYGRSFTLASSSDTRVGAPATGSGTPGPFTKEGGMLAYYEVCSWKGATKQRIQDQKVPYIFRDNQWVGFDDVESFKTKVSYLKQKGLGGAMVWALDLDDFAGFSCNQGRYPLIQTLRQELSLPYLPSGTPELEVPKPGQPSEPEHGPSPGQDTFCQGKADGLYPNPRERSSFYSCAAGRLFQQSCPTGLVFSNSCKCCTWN
Acidic mammalian chitinase, sequence (Q9BZP6 whole entry): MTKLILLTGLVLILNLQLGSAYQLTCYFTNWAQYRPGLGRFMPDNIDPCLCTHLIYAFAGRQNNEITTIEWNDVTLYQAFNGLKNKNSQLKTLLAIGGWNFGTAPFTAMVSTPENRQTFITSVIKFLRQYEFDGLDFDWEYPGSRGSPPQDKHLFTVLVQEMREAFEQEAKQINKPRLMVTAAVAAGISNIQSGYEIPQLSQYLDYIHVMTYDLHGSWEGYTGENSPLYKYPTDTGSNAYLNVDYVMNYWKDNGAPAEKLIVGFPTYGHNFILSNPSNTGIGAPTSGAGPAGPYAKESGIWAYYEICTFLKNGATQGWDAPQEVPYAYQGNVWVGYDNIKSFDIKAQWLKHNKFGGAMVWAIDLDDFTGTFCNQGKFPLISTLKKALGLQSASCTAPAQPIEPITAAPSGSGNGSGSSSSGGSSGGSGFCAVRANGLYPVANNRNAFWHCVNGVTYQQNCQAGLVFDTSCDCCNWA
T1 sequence (Q12809 whole entry): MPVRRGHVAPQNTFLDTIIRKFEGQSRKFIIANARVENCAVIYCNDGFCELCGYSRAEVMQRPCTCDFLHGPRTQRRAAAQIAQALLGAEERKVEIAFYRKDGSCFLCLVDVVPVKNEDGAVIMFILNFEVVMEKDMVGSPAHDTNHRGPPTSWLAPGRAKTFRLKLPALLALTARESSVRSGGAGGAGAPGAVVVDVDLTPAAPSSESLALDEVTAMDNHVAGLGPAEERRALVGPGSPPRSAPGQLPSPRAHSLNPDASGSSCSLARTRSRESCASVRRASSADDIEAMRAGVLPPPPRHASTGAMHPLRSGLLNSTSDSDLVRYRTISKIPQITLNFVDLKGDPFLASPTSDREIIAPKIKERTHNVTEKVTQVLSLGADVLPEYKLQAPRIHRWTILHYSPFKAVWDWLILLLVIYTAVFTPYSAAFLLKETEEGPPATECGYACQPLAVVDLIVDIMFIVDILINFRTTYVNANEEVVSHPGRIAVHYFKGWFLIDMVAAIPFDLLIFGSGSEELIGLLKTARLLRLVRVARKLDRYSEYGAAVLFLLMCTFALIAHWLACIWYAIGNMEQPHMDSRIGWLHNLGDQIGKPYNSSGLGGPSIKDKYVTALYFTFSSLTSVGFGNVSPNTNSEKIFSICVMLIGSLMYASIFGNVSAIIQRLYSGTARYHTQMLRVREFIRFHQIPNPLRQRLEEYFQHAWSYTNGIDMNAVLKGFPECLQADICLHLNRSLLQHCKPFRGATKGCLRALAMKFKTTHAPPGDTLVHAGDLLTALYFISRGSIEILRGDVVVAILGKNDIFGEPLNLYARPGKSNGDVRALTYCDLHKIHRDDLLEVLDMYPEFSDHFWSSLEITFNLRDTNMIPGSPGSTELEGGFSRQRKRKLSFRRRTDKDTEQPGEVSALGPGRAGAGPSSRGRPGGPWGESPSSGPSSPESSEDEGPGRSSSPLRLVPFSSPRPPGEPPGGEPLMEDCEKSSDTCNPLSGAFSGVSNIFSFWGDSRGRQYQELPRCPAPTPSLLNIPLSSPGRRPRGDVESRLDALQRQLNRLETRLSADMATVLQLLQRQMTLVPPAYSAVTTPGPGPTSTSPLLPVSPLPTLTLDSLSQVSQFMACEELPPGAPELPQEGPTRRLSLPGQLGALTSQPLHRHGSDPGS

Compound `CC(C)CN(CCc1ccc(Cl)cc1)C1CCN(c2nc(N)n[nH]2)CC1` showed an AUC(0-inf) in data set [1] of 90 ng·h/mL. Also, in data set [2], the pIC50 was 6.64.
Regarding `Nc1n[nH]c(N2CCC(N(CCc3ccc(Cl)cc3)Cc3ccccc3)CC2)n1`, in data set [2], the pIC50 was 6.91.
On to `Nc1n[nH]c(N2CCC(N(CCc3ccc(Cl)cc3)Cc3ccccc3Cl)CC2)n1`, for which the AUC(0-inf) in data set [1] is 1400 ng·h/mL. Besides, the pIC50 in data set [3] was 5.70; in data set [2], 6.98.
Turning to `Nc1nc(N2CCC(N(CCc3ccc(Cl)cc3)Cc3ccc(F)cc3Cl)CC2)n[nH]1`, the Cmax in data set [4] was 690 ng/mL. In addition, the values for the pIC50 in data set [5] and in data set [2] were 8.30 and 6.70, respectively. The compound further yielded an AUC(0-inf) in [1] of 7500 ng·h/mL.
`Nc1nc(N2CCC(N(CCc3ccc(Cl)cc3)Cc3cccc(O)c3)CC2)n[nH]1`: the results for the pIC50 in data set [5], in [3] and in data set [2] were 8.70, 6.82 and 7.10, respectively.
Take `CN1C[C@H](Cc2ccc(Cl)cc2)N(C2CCN(c3nnc(N)[nH]3)CC2)Cc2ccccc21`: the pIC50 in [5] was 8.85; in data set [3], 5.49; in [2], 6.56.
Compound `Nc1nc(N2CCC(N(CCc3ccc(Cl)cc3)Cc3ccncc3Cl)CC2)n[nH]1` had a Cmax in data set [4] of 130 ng/mL. Further, the pIC50 in [5] is 7.82; in data set [3] it was 5.19; in data set [2], 6.21. This compound also yielded an AUC(0-inf) in data set [1] of 430 ng·h/mL.
Consider `Nc1nc(N2CCC(N(CCc3ccc(Cl)cc3)Cc3ccccc3O)CC2)n[nH]1`, for which the pIC50 in [5] was 8.70; in data set [3], 7.00; in [2] it was 7.31.
`Nc1nnc(N2CCC(N3Cc4cc(Cl)cc(Cl)c4OC[C@@H]3Cc3ccc(Cl)cc3)CC2)[nH]1`: the pIC50 in data set [5] was 7.17; in data set [3] it was 5.22; in data set [2], less than 4.70.
Consider `Nc1nnc(N2CCC(N3Cc4cc(Cl)ccc4OC[C@@H]3Cc3ccc(Cl)cc3)CC2)[nH]1`, for which the pIC50 is 8.10 in data set [5], 5.17 in data set [3] and 5.64 in data set [2].
Consider `CN(C1CCN(c2n[nH]c(N)n2)CC1)[C@H](COc1ccc(Cl)cc1)Cc1ccc(Cl)cc1`, for which the pIC50 in [5] was 6.24; in data set [2], 4.80.
Regarding `Nc1nnc(N2CCC(N3Cc4ccccc4OC[C@@H]3Cc3ccc(Cl)cc3)CC2)[nH]1`, the AUC(0-inf) in data set [6] came out at 2900 ng·h/mL; in [7], 3900 ng·h/mL; in data set [17] it was 22500 ng·h/mL. The values for the half-life in data set [8], in data set [9] and in [20] were 84 min, 66 min and 252 min, respectively. Also, the MRT turned out to be 20.4 min in [10], 50.4 min in data set [12] and 252 min in data set [14]. In addition, the results for the Cmax in [4], in [13] and in [21] were 3400 ng/mL, 3100 ng/mL and 9500 ng/mL, respectively. Further, the Tmax in data set [11] and in [18] was 30 min throughout. Further, the pIC50 in data set [5] is 8.15; in data set [3], 4.66; in data set [2], 6.04; in data set [22] it was 4.64. The same compound came in with a bioavailability in data set [15] of 41%. The compound further gave a clearance in data set [16] of 16.7 mL/min/kg. The Vd in [19] worked out at 0.35 L/kg.
As to `Nc1nc(N2CCC(N(CCc3ccc(Cl)cc3)Cc3cccc(C(F)(F)F)c3)CC2)n[nH]1`, the highest concentration (Cmax) in data set [4] was 1600 ng/mL. Also, the pIC50 was 7.92 in data set [5], 5.57 in data set [3] and 6.51 in [2]. In [1], this compound registered an AUC(0-inf) of 13700 ng·h/mL.
With `CN1C[C@H](Cc2ccc(Cl)cc2)N(C2CCN(c3nnc(N)[nH]3)CC2)Cc2cc(Cl)ccc21`, the pIC50 in data set [5] is 9.15; in [3], 6.10; in data set [2], 6.38.
Consider `C=C1COC[C@H](Cc2ccc(Cl)cc2)N(C2CCN(c3nnc(N)[nH]3)CC2)C1`, for which the pIC50 in data set [5] is 7.92; in data set [2] it was 6.46.
Turning to `Nc1nc(N2CCC(N(Cc3ccccc3)[C@H](CO)Cc3ccc(Cl)cc3)CC2)n[nH]1`, the negative-log IC50 (pIC50) was 6.61 in data set [5], 5.54 in data set [3] and 4.74 in data set [2].
As to `Nc1nc(N2CCC(N(CCc3ccc(Cl)cc3)Cc3cc(F)ccc3F)CC2)n[nH]1`, in [4], the Cmax turned out to be 600 ng/mL. For the same compound, the pIC50 in [5] is 8.30; in data set [2], 6.56. The compound also came in with an AUC(0-inf) in [1] of 2400 ng·h/mL.
Consider `Nc1nc(N2CCC(N(CCc3ccc(Cl)cc3)Cc3ccc(Cl)cc3)CC2)n[nH]1`, for which the pIC50 in [5] is 8.40; in data set [3], 6.40; in data set [2], 7.05. The compound further came in with an AUC(0-inf) in data set [1] of 7000 ng·h/mL.
With `N#Cc1ccc2c(c1)CN(C1CCN(c3n[nH]c(N)n3)CC1)[C@@H](Cc1ccc(Cl)cc1)CO2`, the results for the pIC50 in [5], in data set [3] and in [2] were 7.31, 4.64 and 5.14, respectively.
On to `Nc1nnc(N2CCC(N3Cc4ccncc4OC[C@@H]3Cc3ccc(Cl)cc3)CC2)[nH]1`, for which the values for the pIC50 in data set [5], in data set [3] and in data set [2] were 7.26, 4.30 and 5.36, respectively.
`Nc1nc(N2CCC(N3Cc4cnccc4OC[C@@H]3Cc3ccc(Cl)cc3)CC2)n[nH]1`: the pIC50 was 6.54 in data set [5], 4.77 in [3] and 4.74 in [2].
Turning to `Nc1nnc(N2CCC(N3Cc4cc(F)ccc4OC[C@@H]3Cc3ccc(Cl)cc3)CC2)[nH]1`, the pIC50 was 8.15 in [5] and 6.03 in data set [2].
On to `Nc1nc(N2CCC(N3Cc4cccnc4OC[C@@H]3Cc3ccc(Cl)cc3)CC2)n[nH]1`, for which the results for the pIC50 in data set [5], in [3] and in [2] were 7.52, less than 4.30 and 5.62, respectively.
For the compound `Nc1nc(N2CCC(N(CCc3ccc(Cl)cc3)Cc3cccc(Cl)c3)CC2)n[nH]1`, the concentration in data set [4] peaked (Cmax) at 780 ng/mL. Moreover, the pIC50 in data set [5] is 8.22; in data set [3], 5.43; in data set [2], 6.75. This compound also gave an AUC(0-inf) in data set [1] of 7800 ng·h/mL.
